Experimental data as given in US20070274923A1, “Non-invasive real-time in vivo bioluminescence imaging of local Ca2+ dynamics in living organisms” (priority 2005, published 2007).

Experiments:
cortical neurons = assay: Single-cell bioluminescence imaging of transfected cortical neurons; format: cell-based; settings: cortical neurons with non-targeted GA reconstituted with h coelenterazine
Procedure: Cultures were plated on to glass-bottomed dishes and mounted to a stage adapter on a fully automated inverted microscope mounted in a black-box. GFP-Aequorin was reconstituted with 2.5-5 μM coelenterazine for 30 minutes at 37° C. Incubation of cells with coelenterazine that had been transfected with SynGA was undertaken at room temperature to reduce the consumption of the photoprotein during the reconstitution process. Cells were perfused with tyrodes buffer. Prior to bath application of NMDA, cells were perfused for 1 minute without Mg^2+. All recordings were made at room temperature (22-25° C.). […]
The fluorescence/bioluminescence wide field microscopy system was custom built by ScienceWares, Inc. The system includes a fully automated inverted microscope (200M, Zeiss Germany) and is housed in a light-tight dark box. […] Low level light emission (photon rate<100 kHz), was collected using an Image Photon Detector (IPD 3, Photek Ltd.) connected to the baseport of the microscope, which assigns an X, Y coordinate and time point for each detected photon (Miller et al., 1994). The system is fully controlled by the data acquisition software, which also converts single photon events into an image that can be superimposed with brightfield or fluorescence images made by a connected CCD camera to the C-port (Coolsnap HQ, Roper Scientific). […]

[1] = test system: Ca^2+ oscillations in somatosensory cortex slices; assay: Mitochondrial Ca2+ oscillations in organotypic somatosensory cortex slices of mtGA transgenic mice (bioluminescence imaging); format: cell-based, mouse; settings: 50 μM; oscillations generated by removal of Mg2+ from buffer; slices of P4 mtGA mice

For `[Cl-].[K+]` [KCl], the “Ca2+-induced bioluminescence signal” value (cortical neurons; 90 mM) was “robust signal”.

With `CN[C@H](CC(=O)O)C(=O)O` [NMDA] the “Ca2+-induced bioluminescence signal” value (cortical neurons; 100 μM) was “robust signal”.

With `N[C@H](CCCP(=O)(O)O)C(=O)O` [D-APV] the “effect on Ca2+ oscillations detected within the mitochondrial matrix” value [1] was “completely and reversibly blocked”.
